Toxic doses and inconclusive results are not listed. Cut-off read from the data, not from the text of the source: active = T/C of 150% or more; inactive = T/C below 125%.
Test system: L1210 leukemia ip in BDF1 mice, survival T/C
Assay: NCI In Vivo Anticancer Drug Screen. Data for tumor model L1210 Leukemia (intraperitoneal) in B6D2F1 (BDF1) mice
Conditions: endpoint: mean survival time, higher = longer survival
Procedure, shortened: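 Transplanted-tumor mice were given test agent; controls received vehicle only. Survival readings from the two groups were divided (treated over control).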

[1] = dose: 100.0 mg/kg/injection, schedule: Q01DX001 (ip), vehicle: saline
[2] = dose: 200.0 mg/kg/injection, schedule: Q01DX001 (ip), vehicle: saline
[3] = dose: 12.5 mg/kg/injection, schedule: Q04DX003 (ip), vehicle: other
[4] = dose: 25.0 mg/kg/injection, schedule: Q04DX003 (ip), vehicle: other
[5] = dose: 25.0 mg/kg/injection, schedule: Q01DX009 (ip), vehicle: saline
[6] = dose: 50.0 mg/kg/injection, schedule: Q01DX009 (ip), vehicle: saline
[7] = dose: 100.0 mg/kg/injection, schedule: Q01DX009 (ip), vehicle: saline
[8] = dose: 100.0 mg/kg/injection, schedule: Q04DX003 (ip), vehicle: saline
[9] = dose: 75.0 mg/kg/injection, schedule: Q01DX001 (ip), vehicle: saline
[10] = dose: 100.0 mg/kg/injection, schedule: Q04DX002 (ip), vehicle: saline with Tween-80
[11] = dose: 200.0 mg/kg/injection, schedule: Q04DX002 (ip), vehicle: saline with Tween-80
[12] = dose: 400.0 mg/kg/injection, schedule: Q04DX002 (ip), vehicle: saline with Tween-80
[13] = dose: 25.6 mg/kg/injection, schedule: Q04DX002 (ip), vehicle: saline with Tween-80
[14] = dose: 64.0 mg/kg/injection, schedule: Q04DX002 (ip), vehicle: saline with Tween-80
[15] = dose: 160.0 mg/kg/injection, schedule: Q04DX002 (ip), vehicle: saline with Tween-80
[16] = dose: 100.0 mg/kg/injection, schedule: Q04DX003 (ip), vehicle: Klucel (hydroxypropylcellulose) (HPC)
[17] = dose: 200.0 mg/kg/injection, schedule: Q04DX003 (ip), vehicle: Klucel (hydroxypropylcellulose) (HPC)
[18] = dose: 400.0 mg/kg/injection, schedule: Q04DX003 (ip), vehicle: Klucel (hydroxypropylcellulose) (HPC)
[19] = dose: 100.0 mg/kg/injection, schedule: Q01DX001 (ip), vehicle: saline with Tween-80
[20] = dose: 200.0 mg/kg/injection, schedule: Q01DX001 (ip), vehicle: saline with Tween-80
[21] = dose: 100.0 mg/kg/injection, schedule: Q01DX009 (ip), vehicle: Klucel (hydroxypropylcellulose) (HPC)
[22] = dose: 200.0 mg/kg/injection, schedule: Q01DX009 (ip), vehicle: Klucel (hydroxypropylcellulose) (HPC)
[23] = dose: 400.0 mg/kg/injection, schedule: Q01DX001 (ip), vehicle: saline with Tween-80

Measured: T/C

CSc1cc(N)nc2c1ncn2C1OC(CO)C(O)C1O (centres undefined)
inactive: [1] 113 % of control | [2] 93 % of control | dose: 400.0 mg/kg/injection, schedule: Q01DX001 (ip), vehicle: saline 103 % of control

CCCCNC(C)(C)CSSSCC(C)(C)NCCCC
inactive: dose: 6.25 mg/kg/injection, schedule: Q01DX009 (ip), vehicle: water 102 % of control | dose: 12.5 mg/kg/injection, schedule: Q01DX009 (ip), vehicle: water 92 % of control | [3] 96 % of control | dose: 25.0 mg/kg/injection, schedule: Q01DX009 (ip), vehicle: water 92 % of control | [4] 94 % of control | dose: 50.0 mg/kg/injection, schedule: Q01DX009 (ip), vehicle: other 106 % of control | dose: 50.0 mg/kg/injection, schedule: Q01DX009 (ip), vehicle: water 103 % of control | dose: 50.0 mg/kg/injection, schedule: Q04DX003 (ip), vehicle: other 94 % of control | dose: 100.0 mg/kg/injection, schedule: Q01DX009 (ip), vehicle: other 95 % of control

OCCN1CCSC1=S
inactive: dose: 100.0 mg/kg/injection, schedule: Q01DX009 (ip), vehicle: saline with Tween-80 87 % of control | dose: 200.0 mg/kg/injection, schedule: Q01DX009 (ip), vehicle: saline with Tween-80 88 % of control

CN1CCC2=C(C1)C(c1ccccc1)c1ccccc12 (centres undefined)
inactive: [5] 90 % of control | [6] 95 % of control | dose: 50.0 mg/kg/injection, schedule: Q04DX003 (ip), vehicle: saline 106 % of control | [7] 102 % of control | [8] 106 % of control

Clc1c(Cl)c(Cl)c2n[nH]nc2c1Cl
inactive: [9] 96 % of control

CC(C)C(C=NCC(CCN(C)C)(c1ccc2ccccc2c1)C(C)C)(CCN(C)C)c1ccc2ccccc2c1 (centres undefined)
inactive: dose: 6.25 mg/kg/injection, schedule: Q04DX002 (ip), vehicle: saline + alcohol 87 % of control | dose: 12.5 mg/kg/injection, schedule: Q04DX002 (ip), vehicle: saline + alcohol 93 % of control | dose: 25.0 mg/kg/injection, schedule: Q04DX002 (ip), vehicle: saline + alcohol 93 % of control

CC(C)CCCC(C)CCCl (centres undefined)
inactive: [10] 93 % of control | [11] 86 % of control | [12] 107 % of control

c1ccc(CC(c2ccccc2)(c2ccccc2)c2ccccc2)cc1
inactive: [13] 89 % of control | [14] 93 % of control | [15] 93 % of control | [12] 112 % of control

CCOC(=O)C1C2OC(=O)C(C(=O)C2CN(CCCl)CCCl)C1c1ccc(OC(C)=O)cc1 (centres undefined)
inactive: dose: 50.0 mg/kg/injection, schedule: Q04DX003 (ip), vehicle: Klucel (hydroxypropylcellulose) (HPC) 93 % of control | [16] 101 % of control | [17] 103 % of control | [18] 97 % of control

N#CCC(N)C(=O)O (centres undefined)
inactive: dose: 50.0 mg/kg/injection, schedule: Q01DX001 (ip), vehicle: saline 90 % of control | [1] 96 % of control | [2] 96 % of control

COC1CCC(/C(C#N)=C/C2CCC3OCOC3C2)CC1 (centres undefined)
inactive: [10] 101 % of control | [11] 90 % of control | [12] 94 % of control

C(=C(c1ccccc1)c1ccccc1)C1=NCCS1
inactive: dose: 50.0 mg/kg/injection, schedule: Q04DX002 (ip), vehicle: saline with Tween-80 108 % of control | dose: 100.0 mg/kg/injection, schedule: Q03DX002 (ip), vehicle: saline with Tween-80 98 % of control | [10] 101 % of control | [11] 104 % of control | dose: 400.0 mg/kg/injection, schedule: Q03DX002 (ip), vehicle: saline with Tween-80 117 % of control

C[N+]1(C)C2CCCC1CC(=O)NC2 (centres undefined)
inactive: [9] 107 % of control | dose: 150.0 mg/kg/injection, schedule: Q01DX001 (ip), vehicle: saline 104 % of control | dose: 300.0 mg/kg/injection, schedule: Q01DX001 (ip), vehicle: saline 112 % of control

S=c1nc2ccccn2c(=S)n1-c1ccccn1
inactive: [19] 106 % of control | [20] 100 % of control

CN(C)c1ccc(C(C#N)(c2ccc(N(C)C)cc2)c2ccc(N(C)C)cc2)cc1
inactive: [21] 95 % of control | [16] 103 % of control | [22] 97 % of control | [17] 106 % of control | [18] 90 % of control

N=c1ccc2ccccc2n1O
inactive: dose: 6.25 mg/kg/injection, schedule: Q04DX003 (ip), vehicle: other 97 % of control | [3] 95 % of control | [4] 100 % of control

Cc1nc[nH]c(=O)c1CCC(C)C
inactive: dose: 100.0 mg/kg/injection, schedule: Q01DX001 (ip), vehicle: Klucel (hydroxypropylcellulose) (HPC) 107 % of control | dose: 200.0 mg/kg/injection, schedule: Q01DX001 (ip), vehicle: Klucel (hydroxypropylcellulose) (HPC) 105 % of control | dose: 400.0 mg/kg/injection, schedule: Q01DX001 (ip), vehicle: Klucel (hydroxypropylcellulose) (HPC) 100 % of control

CC1(C)CSC(=S)N1CCC#N
inactive: dose: 75.0 mg/kg/injection, schedule: Q01DX001 (ip), vehicle: other 104 % of control

CCN(CC)CC(=O)NCC(CCN1CCCC1)(CC(C)C)c1cccc2ccccc12 (centres undefined)
inactive: dose: 100.0 mg/kg/injection, schedule: Q04DX002 (ip), vehicle: saline 97 % of control | dose: 200.0 mg/kg/injection, schedule: Q04DX002 (ip), vehicle: saline 94 % of control

CN(C1CCCC1)C1CCCC1
inactive: dose: 10.0 mg/kg/injection, schedule: Q01DX009 (ip), vehicle: Klucel (hydroxypropylcellulose) (HPC) 106 % of control | dose: 10.0 mg/kg/injection, schedule: Q04DX003 (ip), vehicle: Klucel (hydroxypropylcellulose) (HPC) 102 % of control | dose: 20.0 mg/kg/injection, schedule: Q01DX009 (ip), vehicle: Klucel (hydroxypropylcellulose) (HPC) 104 % of control | dose: 20.0 mg/kg/injection, schedule: Q04DX003 (ip), vehicle: Klucel (hydroxypropylcellulose) (HPC) 94 % of control | dose: 40.0 mg/kg/injection, schedule: Q01DX009 (ip), vehicle: Klucel (hydroxypropylcellulose) (HPC) 102 % of control | dose: 40.0 mg/kg/injection, schedule: Q04DX003 (ip), vehicle: Klucel (hydroxypropylcellulose) (HPC) 96 % of control

Cc1cnc(SCc2ccccc2Cl)[nH]c1=O
inactive: dose: 25.0 mg/kg/injection, schedule: Q01DX Z (ip), vehicle: methylcellulose (MC) 90 % of control | dose: 50.0 mg/kg/injection, schedule: Q01DX Z (ip), vehicle: methylcellulose (MC) 100 % of control

COc1ccc(C)cc1NN
inactive: [5] 101 % of control | [6] 97 % of control | [8] 96 % of control

COc1ccc([N+](=O)[O-])cc1NC(=O)Nc1cccc(C(=O)O)c1
inactive: dose: 50.0 mg/kg/injection, schedule: Q01DX009 (ip), vehicle: Klucel (hydroxypropylcellulose) (HPC) 101 % of control | [21] 96 % of control | [22] 86 % of control

COC(=O)c1cc(I)cc(I)c1N
inactive: [19] 98 % of control | [20] 98 % of control | [23] 100 % of control

Fc1c(F)c(F)c(Oc2nc(Oc3c(F)c(F)c(F)c(F)c3F)nc(-c3ccccc3)n2)c(F)c1F
inactive: [13] 91 % of control | [14] 102 % of control | dose: 100.0 mg/kg/injection, schedule: Q04DX003 (ip), vehicle: saline with Tween-80 92 % of control | [15] 94 % of control | dose: 200.0 mg/kg/injection, schedule: Q04DX003 (ip), vehicle: saline with Tween-80 92 % of control | [12] 105 % of control | dose: 400.0 mg/kg/injection, schedule: Q04DX003 (ip), vehicle: saline with Tween-80 87 % of control

CC1(C)N=C(N)N=C(N)N1c1ccc(OCCNC(=O)Nc2ccc(S(=O)(=O)F)cc2)c(Cl)c1
inactive: [5] 102 % of control | [6] 105 % of control | [7] 113 % of control

CCOC(=O)CCC(NC(=O)c1ccc(NCc2nnc3nc(N)nc(SCc4ccccc4)c3n2)cc1)C(=O)OCC (centres undefined)
inactive: [19] 103 % of control | [20] 100 % of control | [23] 105 % of control

Source: PubChem BioAssay AID248 (DTP/NCI, 2004)
